The C3SDB collision cross section collection

Tests used:
[1] = instrument: DT, single field, calibrated with Agilent tune mix (Agilent)
[2] = instrument: DT, stepped-field

CCCCCCCCCCCCC=CC[C@@H](O)[C@H](CO[C@@H]1O[C@H](CO)[C@@H](O)C(O)C1O)NC(=O)CC=CCCCCCCCCCCCCCC (some centres undefined) [GlcCer(36:2)]
collision cross section (N2) ([1]; [M+H]+): 283.4 Å² | collision cross section (N2) ([2]; [M+Na]+): 282.6 Å²

CCCCCCCCCCCCCCCCCCCCCCCC(=O)N[C@@H](CO[C@@H]1O[C@H](CO)[C@@H](O)C(O)C1O)[C@H](O)CCCCCCCCCCCCCCC (some centres undefined) [GlcCer(42:0)]
collision cross section (N2) ([1]; [M+HCOO]-): 300.8 Å² | collision cross section (N2) ([2]; [M+Na]+): 308.2 Å²

CCCCCCCCCCCCC=CC[C@@H](O)[C@H](CO[C@@H]1O[C@H](CO)[C@@H](O)C(O)C1O)NC(=O)CC=CCCCCCCCCCCCCCCCCCCCC (some centres undefined) [GlcCer(42:2)]
collision cross section (N2) ([1]; [M+HCOO]-): 298.5 Å² | collision cross section (N2) ([1]; [M+H]+): 300.9 Å² | collision cross section (N2) ([1]; [M+Na]+): 300.4 Å² | collision cross section (N2) ([2]; [M+Na]+): 305.2 Å²

CCCCCCCCC/C=C\CCCCCCCC(=O)O[C@H](COC(=O)CCCCCCCCCCCCCCCCC)COP(=O)(O)OCCN [PE(37:1)]
collision cross section (N2) ([2]; [M+K]+): 295 Å² | collision cross section (N2) ([2]; [M+Na]+): 292.2 Å²

CCCCC/C=C\C/C=C\CCCCCCCC(=O)O[C@H](COC(=O)CCCCCCCCCCCCCCCCCC)COP(=O)(O)OCCN [PE(37:2)]
collision cross section (N2) ([2]; [M+K]+): 289.8 Å² | collision cross section (N2) ([2]; [M+Na]+): 288.2 Å²

CCCCC/C=C\C/C=C\CCCCCCCCCC(=O)O[C@H](COC(=O)CCCCCCC/C=C\CCCCCCC)COP(=O)(O)OCCN [PE(37:3)]
collision cross section (N2) ([2]; [M+K]+): 286.5 Å² | collision cross section (N2) ([2]; [M+Na]+): 286.2 Å²

CCCC/C=C\C/C=C\CCCCCCCC(=O)OC[C@H](COP(=O)(O)OCCN)OC(=O)CCCCC/C=C\C/C=C\C/C=C\C/C=C\CCCCC [PE(39:6)]
collision cross section (N2) ([2]; [M+Na]+): 286.4 Å²

CC/C=C\C/C=C\C/C=C\C/C=C\C/C=C\C/C=C\CCC(=O)OC[C@H](COP(=O)(O)OCCN)OC(=O)CC/C=C\C/C=C\C/C=C\C/C=C\C/C=C\C/C=C\CC [PE(44:12)]
collision cross section (N2) ([2]; [M+Na]+): 299.7 Å²

CCCCC/C=C\C/C=C\CCCCCCCC(=O)O[C@H](COCCCCCCCCCCCCCCCC)COP(=O)(O)OCCN [PE(o34:2)]
collision cross section (N2) ([2]; [M+Na]+): 279.7 Å²

CCCCC/C=C\C/C=C\C/C=C\C/C=C\CCCC(=O)O[C@H](COC(=O)CCCCCCCCCCCCCCCC)COP(=O)(O)OC[C@H](N)C(=O)O [PS(37:4)]
collision cross section (N2) ([2]; [M+Na]+): 295 Å²

CCCCC/C=C\C/C=C\C/C=C\C/C=C\CCCC(=O)OC[C@H](COP(=O)(O)OC[C@H](N)C(=O)O)OC(=O)CCCC/C=C\C/C=C\C/C=C\CCCCC [PS(38:7)]
collision cross section (N2) ([2]; [M+Na]+): 290.2 Å²

CC/C=C\C/C=C\C/C=C\C/C=C\C/C=C\C/C=C\CCC(=O)OC[C@H](COP(=O)(O)OC[C@H](N)C(=O)O)OC(=O)CCCCCCC/C=C\CCCCCCCC [PS(40:7)]
collision cross section (N2) ([2]; [M+Na]+): 295.6 Å²

CC/C=C\C/C=C\C/C=C\C/C=C\C/C=C\C/C=C\CCC(=O)O[C@H](COC(=O)CCCCCCCCCCCCCCCCCC)COP(=O)(O)OC[C@H](N)C(=O)O [PS(41:6)]
collision cross section (N2) ([2]; [M+Na]+): 303.3 Å²

CCCCC/C=C\C/C=C\C/C=C\C/C=C\CCCCCC(=O)O[C@H](COC(=O)CCCCCCCCC/C=C\CCCCCCCC)COP(=O)(O)OC[C@H](N)C(=O)O [PS(42:5)]
collision cross section (N2) ([2]; [M+Na]+): 307 Å²

CC/C=C\C/C=C\C/C=C\C/C=C\C/C=C\C/C=C\CCC(=O)O[C@H](COC(=O)CCCCCC/C=C\C/C=C\C/C=C\CCCCC)COP(=O)(O)OC[C@H](N)C(=O)O [PS(42:9)]
collision cross section (N2) ([2]; [M+Na]+): 302 Å²

CCCCCCCC=CCC=CCC=CCC=CCC=CCC(=O)OC[C@H](COP(=O)(O)OC[C@H](N)C(=O)O)OC(=O)CC=CCC=CCC=CCC=CCC=CCCCCCCC [PS(46:10)]
collision cross section (N2) ([2]; [M+K]+): 306.3 Å² | collision cross section (N2) ([2]; [M+Na]+): 309.2 Å²

CCCCC=CCC=CCC=CCC=CCC=CCC=CCC(=O)OC[C@H](COP(=O)(O)OC[C@H](N)C(=O)O)OC(=O)CC=CCC=CCC=CCC=CCC=CCC=CCCCC [PS(46:12)]
collision cross section (N2) ([2]; [M+Na]+): 309.5 Å²

CCCCCC=CCC=CCC=CCC=CCC=CCC=CCC(=O)OC[C@H](COP(=O)(O)OC[C@H](N)C(=O)O)OC(=O)CC=CCC=CCC=CCC=CCC=CCC=CCCCCC [PS(48:12)]
collision cross section (N2) ([2]; [M+K]+): 313.6 Å²

CCC=CCC=CCC=CCC=CCC=CCC=CCC=CCC(=O)OC[C@H](COP(=O)(O)OC[C@H](N)C(=O)O)OC(=O)CC=CCC=CCC=CCC=CCC=CCC=CCC=CCC [PS(48:14)]
collision cross section (N2) ([2]; [M+K]+): 311 Å² | collision cross section (N2) ([2]; [M+Na]+): 312 Å²

CCC(C)[C@H](NC(=O)[C@@H](N)CCC(N)=O)C(=O)N[C@@H](CO)C(=O)N[C@H](C(=O)N[C@@H](CCCNC(=N)N)C(=O)O)C(C)C (some centres undefined) [QISVR]
collision cross section (N2) ([2]; [M+H]+): 241.4 Å²

CCC(C)[C@H](NC(=O)[C@H](CO)NC(=O)[C@@H](NC(=O)[C@@H](N)CO)C(C)CC)C(=O)N[C@H](C(=O)NCC(=O)N[C@@H](CO)C(=O)N[C@@H](Cc1ccc(O)cc1)C(=O)N[C@H](C(=O)NCC(=O)N[C@@H](CC(N)=O)C(=O)N[C@@H](CCCNC(=N)N)C(=O)O)C(C)C)C(C)C (some centres undefined) [SISIVGSYVGNR]
collision cross section (N2) ([2]; [M+H]+): 349.1 Å²

CCCCCCCCCCCCC=CC[C@@H](O)[C@H](COP(=O)([O-])OCC[N+](C)(C)C)NC(=O)CC=CCCCCCCCCCCCCCCCCCCCCCC [SM(44:2)]
collision cross section (N2) ([2]; [M+Na]+): 313.5 Å²

CC(C)[C@H](NC(=O)[C@@H](N)CO)C(=O)N[C@@H](Cc1ccc(O)cc1)C(=O)N[C@@H](CC(=O)O)C(=O)N[C@@H](CO)C(=O)N[C@@H](CCCNC(=N)N)C(=O)O [SVYDSR]
collision cross section (N2) ([2]; [M+H]+): 258.4 Å²

CCCCCCC[N+](CCCCCCC)(CCCCCCC)CCCCCCC [TAA7]
collision cross section (N2) ([2]; [M]+): 236.4 Å²

CCCCCCCCCCCCCCCCCC[N+](CCCCCCCCCCCCCCCCCC)(CCCCCCCCCCCCCCCCCC)CCCCCCCCCCCCCCCCCC [TAA18]
collision cross section (N2) ([2]; [M]+): 379 Å²

CC(C)C[C@H](NC(=O)[C@H](CO)NC(=O)[C@H](C)NC(=O)[C@@H](N)C(C)C)C(=O)N[C@@H](CCCNC(=N)N)C(=O)O [VASLR]
collision cross section (N2) ([2]; [M+H]+): 232.5 Å²

CC(C)C[C@H](NC(=O)[C@H](CC(=O)O)NC(=O)[C@@H](NC(=O)[C@H](CC(C)C)NC(=O)[C@@H](N)C(C)C)C(C)C)C(=O)N[C@@H](CCC(=O)O)C(=O)N[C@@H](CCCNC(=N)N)C(=O)O [VLVDLER]
collision cross section (N2) ([2]; [M+H]+): 285.7 Å²

CCC(C)C(NC(=O)C(N)Cc1c[nH]c2ccccc12)C(=O)NC(CCCN=C(N)N)C(=O)O (centres undefined) [WIR]
collision cross section (N2) ([2]; [M+H]+): 215.4 Å²

CC(C)C[C@H](NC(=O)[C@H](CC(=O)O)NC(=O)[C@@H](N)Cc1ccc(O)cc1)C(=O)N[C@@H](CC(=O)O)C(=O)N[C@@H](Cc1ccccc1)C(=O)N[C@@H](CCCCN)C(=O)O [YDLDFK]
collision cross section (N2) ([2]; [M+H]+): 272.4 Å²
